Reference: US12403144B2, “HECT E3 ligase inhibitors and uses thereof” (IFOM FONDAZIONE ISTITUTO FIRC DI ONCOLOGIA MOLECOLARE, priority 2019, dated 2025)
Where a name gives a salt, the structure may show the parent alone.

Experiments:
[1] = target: T1, untagged HECT of NEDD4 wild-type (WT) (E3 ligase) (Homo sapiens, UniProt P46934); assay: In vitro ubiquitination assay TR-FRET based (self-ubiquitination of NEDD4); format: biochemical; conditions: for inhibition at 11 µM: pre-incubated for 1 hour, AUC of 120 minutes kinetic, read-out: percentages of inhibition (NEDD4)
T1 construct: untagged HECT of NEDD4 wild-type (WT) (E3 ligase); made in house
T1 sequence (P46934 519-900 isoform P46934-4 limits assumed): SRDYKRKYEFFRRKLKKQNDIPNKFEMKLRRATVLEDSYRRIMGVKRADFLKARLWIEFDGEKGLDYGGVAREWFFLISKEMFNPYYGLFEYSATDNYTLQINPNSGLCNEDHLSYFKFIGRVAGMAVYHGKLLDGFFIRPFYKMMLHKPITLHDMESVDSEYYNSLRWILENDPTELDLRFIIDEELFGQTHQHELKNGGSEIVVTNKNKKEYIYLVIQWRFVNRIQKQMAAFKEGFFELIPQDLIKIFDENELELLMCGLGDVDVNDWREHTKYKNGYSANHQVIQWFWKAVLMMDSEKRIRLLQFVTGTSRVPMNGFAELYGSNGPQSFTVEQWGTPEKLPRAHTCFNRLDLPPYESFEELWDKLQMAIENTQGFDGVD
How it was run: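 Mix of E1, His-UBE2D3 and untagged NEDD4 HECT (final 30, 350, 50 nM) with Eu-cryptate/Cy5/unlabelled ubiquitin in pH 7.6 Tris buffer, compounds (100–0.005 μM dilution series) pre-incubated 1 h, then started with ATP. 665/620 nm TR-FRET followed 120 min; % inhibition from AUC versus DMSO, no-ATP background.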

[2] = target: T2, untagged HECT of ITCH (E3 ligase) (Homo sapiens, UniProt Q96J02); assay: In vitro ubiquitination assay TR-FRET based, ITCH; format: biochemical; conditions: read-out: percentage of inhibition (ITCH)
T2 construct: using untagged HECT of ITCH (E3 ligase) instead of untagged HECT of NEDD4 wild-type (WT) (E3 ligase); made in house
T2 sequence (Q96J02 569-903 limits assumed): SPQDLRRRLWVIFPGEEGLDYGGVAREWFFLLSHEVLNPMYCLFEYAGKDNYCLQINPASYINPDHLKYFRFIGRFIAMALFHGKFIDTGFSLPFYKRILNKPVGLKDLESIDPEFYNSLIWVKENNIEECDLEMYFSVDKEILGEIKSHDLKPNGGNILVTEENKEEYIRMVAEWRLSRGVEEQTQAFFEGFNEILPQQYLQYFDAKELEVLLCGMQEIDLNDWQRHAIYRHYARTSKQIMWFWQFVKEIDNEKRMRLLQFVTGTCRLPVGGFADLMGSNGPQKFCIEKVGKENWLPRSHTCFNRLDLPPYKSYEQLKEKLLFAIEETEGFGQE
Experimental: To determine the selectivity of identified NEDD4 inhibitors, it was quantitatively measured the self-ubiquitination process of the E3 HECT ligase belonging to NEDD4 family such as NEDD4L, HECW2 and ITCH in presence or not of some compounds such as 5, 9, 12, 29, 42, 45, 56, 58, 61, 77, 78, 85 and 94 employing TR-FRET based assays.
The assay was performed as described above in the paragraph titled “In vitro ubiquitination assay TR-FRET based” under the heading “2.1. NEDD4 UBIQUITINATION ASSAYS” using untagged HECT of ITCH (E3 ligase) instead of untagged HECT of NEDD4 wild-type (WT) (E3 ligase). In this case, final E1, E2 and E3 concentrations in the assay buffer (Tris-HCl pH 7.6 25 mM, NaCl 100 mM, MgCl2 5 mM and Tween 0.01%) were 30, 350 and 60 nanomolars, respectively. Untagged HECT of ITCH (E3 ligase) enzyme was produced and purified as reported in E. Maspero et al. Methods Mol Biol. 1449:153-60 (2016) and in E. Maspero et al. EMBO Reports 12:342-349(2011).

SMILES	inhibition at 11 µM [1] [%]	inhibition at 11 µM [2] [%]	inhibition of enzymatic activity, TR-FRET kinetic assay (% of signal/background during the time) ([1]; FIG. 1, HECT NEDD4 WT, concentrations indicated in the figure)
CCOC(=O)/C=C/CCNCCCN1c2ccccc2CCc2ccc(Cl)cc21 [Compound 5, Ethyl (E)-5-[3-(3-chloro-10,11-dihydro-5H-dibenzo[b,f]azepin-5-yl)propylamino]pent-2-enoate maleate]	> 50	< 15	
CON(C)C(=O)/C=C/CN(C)CCCCN1c2ccccc2CCc2ccc(Cl)cc21 [Compound 9, (E)-4-[4-(3-Chloro-10,11-dihydro-5H-dibenzo[b,f]azepin-5-yl)butyl-methyl-amino]-N-methoxy-N-methyl-but-2-enamide]	> 50	< 20	
CCOC(=O)/C=C/CNCCCCN1c2ccccc2CCc2ccc(Cl)cc21.O=C(O)/C=C\C(=O)O [Compound 12, Ethyl (E)-4-[4-(3-chloro-10,11-dihydro-5H-dibenzo[b,f]azepin-5-yl)butylamino]but-2-enoate maleate]	> 50	< 5	dose dependent inhibition of enzymatic activity
CCOC(=O)/C=C/CNCCCCN1c2ccccc2C(=O)N(C)c2ccc(Cl)cc21 [Compound 29, Ethyl (E)-4-{[4-(7-chloro-10-methyl-11-oxo-10,11-dihydro-5H-dibenzo[b,e][1,4]diazepin-5-yl)butyl]amino}but-2-enoate maleate]	> 50	< 5	
CCOC(=O)/C=C/CNCCCCN1c2cc(Cl)ccc2C(=O)N(C)c2ccccc21 [Compound 42, Ethyl (E)-4-{[4-(3-chloro-10-methyl-11-oxo-10,11-dihydro-5H-dibenzo[b,e][1,4]diazepin-5-yl)butyl]amino}but-2-enoate maleate]	> 50	< 15	
CCOC(=O)/C=C/CNCCCCN1c2ccccc2C(=O)N(Cc2ccccc2)c2ccc(Cl)cc21 [Compound 45, Ethyl (E)-4-{[4-(10-benzyl-7-chloro-11-oxo-10,11-dihydro-5H-dibenzo[b,e][1,4]diazepin-5-yl)butyl]amino}but-2-enoate maleate]	> 50	< 5	
CCOC(=O)/C=C/CNCCCCN1c2cc(Cl)ccc2C(=O)N(Cc2ccccc2)c2ccccc21 [Compound 56, Ethyl (E)-4-((4-(10-benzyl-3-chloro-11-oxo-10,11-dihydro-5H-dibenzo[b,e][1,4]diazepin-5-yl)butyl)amino)but-2-enoate maleate]	> 50	< 15	

Now from value to compound, other results behind:

inhibition at 11 µM [1] [%]	inhibition at 11 µM [2] [%]	SMILES	inhibition of enzymatic activity, TR-FRET kinetic assay (% of signal/background during the time) ([1]; FIG. 1, HECT NEDD4 WT, concentrations indicated in the figure)
> 50	< 15	COC(=O)/C=C/CN(C)CCCCN1c2cc(Cl)ccc2C(=O)N(Cc2ccccc2)c2ccccc21 [Compound 58, Methyl (E)-4-{[4-(10-benzyl-3-chloro-11-oxo-10,11-dihydro-5H-dibenzo[b,e][1,4]diazepin-5-yl)butyl](methyl)amino}but-2-enoate maleate]	
> 50	< 5	CN(C/C=C/C#N)CCCCN1c2cc(Cl)ccc2C(=O)N(Cc2ccccc2)c2ccccc21 [Compound 61, (E)-4-{[4-(10-benzyl-3-chloro-11-oxo-10,11-dihydro-5H-dibenzo[b,e][1,4]diazepin-5-yl)butyl](methyl)amino}but-2-enenitrile maleate]	
> 50	< 5	C#CCON(C)C(=O)/C=C/CN(C)CCCCN1c2ccccc2CCc2ccc(Cl)cc21 [Compound 77, (E)-4-[4-(3-Chloro-10,11-dihydro-5H-dibenzo[b,f]azepin-5-yl)butyl-methyl-amino]-N-methyl-N-prop-2-ynoxy-but-2-enamide maleate]	
> 50	< 20	CONC(=O)/C=C/CNCCCCN1c2ccccc2CCc2ccc(Cl)cc21 [Compound 78, (E)-4-[4-(3-Chloro-10,11-dihydro-5H-dibenzo[b,f]azepin-5-yl)butylamino]-N-methoxy-but-2-enamide maleate]	
> 50	< 25	CONC(=O)/C=C/CN(C)CCCCN1c2ccccc2CCc2ccc(Cl)cc21 [Compound 85, (E)-4-[4-(3-Chloro-10,11-dihydro-5H-dibenzo[b,f]azepin-5-yl)butyl-methyl-amino]-N-methoxy-but-2-enamide maleate]	
> 50	< 15	CN(C/C=C/C(=O)OCCOCCOCCOCCNC(=O)CCCC[C@@H]1SC[C@@H]2NC(=O)N[C@@H]21)CCCCN1c2ccccc2CCc2ccc(Cl)cc21 [Compound 94, 2-[2-(2-{2-[5-((3aS,4S,6aR)-2-Oxo-hexahydro-thieno[3,4-d]imidazol-4-yl)-pentanoylamino]-ethoxy}-ethoxy)-ethoxy]-ethyl (E)-4-{[4-(3-chloro-10,11-dihydro-dibenzo[b,f]azepin-5-yl)-butyl]-methyl-amino}but-2-enoate]	
